Reference: article PMC4521981 (Nature methods, 2015)

What was measured:
[1] = system: MBP-SCRIB-4/4 PDZ construct; assay: Automated holdup assay, benchmark set; format: binding, human; details: overlaid electropherograms of peptide and biotin flowthroughs
[2] = system: MBP-SCRIB-34/4 PDZ tandem construct; assay: Automated holdup assay, benchmark set; format: binding, human; details: overlaid electropherograms of peptide and biotin flowthroughs

Row | binding strength in holdup [1] | binding strength in holdup [2] | Sequence
1 | no binding | – | GSGAGHETIV [TMFLJ_05]
2 | – | moderate binding | GSGAGKETLV [NET1_05]
